Patent US7026328B2, “Heterocyclic compounds which inhibit leukocyte adhesion mediated by α4 integrins” (Elan Pharmaceuticals, Inc., priority 2002, dated 2006)

How the values were obtained:
α4β1 integrin = molecular target: T1, α4β1 integrin (Homo sapiens, UniProt P05556+P13612); assay: α4β1 Integrin Adhesion Assay: Jurkat Cell Adhesion to Human Plasma Fibronectin; assay type: cell-based; details: Jurkat cells
T1 construct: Jurkat™ cells (maintained in log phase growth) were labeled with Calcein AM; endogenous in cells; host or cells: Jurkat cells
T1 sequence (P13612 34-1032): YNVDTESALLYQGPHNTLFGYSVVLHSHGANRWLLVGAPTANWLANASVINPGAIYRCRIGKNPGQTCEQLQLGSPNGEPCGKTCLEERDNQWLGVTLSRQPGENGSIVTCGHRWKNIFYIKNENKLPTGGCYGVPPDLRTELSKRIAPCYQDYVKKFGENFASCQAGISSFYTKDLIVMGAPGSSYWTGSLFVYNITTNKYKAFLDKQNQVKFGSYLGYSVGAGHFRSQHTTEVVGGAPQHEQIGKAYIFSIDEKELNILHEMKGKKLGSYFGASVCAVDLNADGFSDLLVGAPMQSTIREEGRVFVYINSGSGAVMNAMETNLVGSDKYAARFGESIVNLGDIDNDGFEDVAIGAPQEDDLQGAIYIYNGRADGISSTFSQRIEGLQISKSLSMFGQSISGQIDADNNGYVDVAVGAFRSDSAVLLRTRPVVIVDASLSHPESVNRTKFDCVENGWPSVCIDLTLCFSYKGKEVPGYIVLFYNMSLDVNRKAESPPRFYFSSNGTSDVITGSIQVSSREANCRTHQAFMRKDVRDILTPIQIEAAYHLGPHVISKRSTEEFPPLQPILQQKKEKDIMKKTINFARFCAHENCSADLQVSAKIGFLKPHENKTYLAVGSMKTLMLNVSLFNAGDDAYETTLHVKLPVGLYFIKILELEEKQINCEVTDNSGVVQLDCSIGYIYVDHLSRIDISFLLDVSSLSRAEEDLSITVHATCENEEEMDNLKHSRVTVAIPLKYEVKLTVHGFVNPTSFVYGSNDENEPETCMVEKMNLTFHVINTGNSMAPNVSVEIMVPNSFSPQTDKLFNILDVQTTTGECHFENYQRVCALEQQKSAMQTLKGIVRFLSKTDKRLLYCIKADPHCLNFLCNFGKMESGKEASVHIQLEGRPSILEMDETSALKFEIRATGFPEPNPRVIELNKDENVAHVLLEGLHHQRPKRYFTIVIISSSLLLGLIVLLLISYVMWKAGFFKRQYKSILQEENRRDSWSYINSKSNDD
T1 sequence (P05556 21-798): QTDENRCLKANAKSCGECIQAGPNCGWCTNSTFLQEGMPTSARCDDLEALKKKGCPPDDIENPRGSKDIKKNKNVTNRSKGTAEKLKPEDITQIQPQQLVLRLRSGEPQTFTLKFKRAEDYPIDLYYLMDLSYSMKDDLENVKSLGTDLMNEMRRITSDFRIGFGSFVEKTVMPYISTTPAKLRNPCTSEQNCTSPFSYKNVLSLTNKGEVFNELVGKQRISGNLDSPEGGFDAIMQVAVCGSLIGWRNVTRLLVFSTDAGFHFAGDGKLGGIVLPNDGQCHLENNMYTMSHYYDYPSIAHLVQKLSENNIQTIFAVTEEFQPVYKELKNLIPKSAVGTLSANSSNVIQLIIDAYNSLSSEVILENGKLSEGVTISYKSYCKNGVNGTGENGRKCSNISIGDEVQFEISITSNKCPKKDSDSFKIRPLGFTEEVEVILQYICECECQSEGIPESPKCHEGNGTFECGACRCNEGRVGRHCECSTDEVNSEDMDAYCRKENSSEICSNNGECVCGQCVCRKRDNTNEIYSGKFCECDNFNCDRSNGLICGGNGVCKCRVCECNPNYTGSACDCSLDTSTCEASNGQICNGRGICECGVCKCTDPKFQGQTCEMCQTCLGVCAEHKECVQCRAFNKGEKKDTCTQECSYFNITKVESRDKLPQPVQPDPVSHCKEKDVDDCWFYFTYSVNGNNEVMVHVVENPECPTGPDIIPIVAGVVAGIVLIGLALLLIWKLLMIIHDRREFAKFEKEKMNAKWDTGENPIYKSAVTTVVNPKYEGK
Description: 96 well plates (Costar 3590 EIA plates) were coated with human fibronectin (Gibco/BRL, cat #33016–023) at a concentration of 10 μg/mL overnight at 4° C. The plates were then blocked with a solution of bovine serum albumin (BSA; 0.3%) in saline. Jurkat™ cells (maintained in log phase growth) were labeled with Calcein AM according to the manufacturer's instructions, and suspended at a concentration of 2×10^6 cells/mL in Hepes/Saline/BSA. The cells were then exposed to test and control compounds for 30 minutes at room temperature before transfer to individual wells of the fibronectin coated plate. Adhesion was allowed to occur for 35 minutes at 37° C. The wells were then washed by gentle aspiration and pipetting with fresh saline. Fluorescence associated with the remaining adherent cells was quantified using a fluorescence plate reader at EX 485/EM 530.
Cell cultures were prepared by first splitting the stationary phase Jurkat™ cells at 1:10 on day one, and 1:2 on day two to perform assay on day 3. The cells split 1:10 on day one were split 1:4 on day 3 for a day 4 assay.
The assay plates were prepared by first making a working solution of Gibco/BRL Human Fibronectin (cat #33016-023) in PBS++, at 10 μg/mL. A Costar 3590 EIA plate was then coated with 50 μL/well for 2 hours at room temperature (thought it can also be left overnight at 4° C.). Finally the plate was asperated and blocked with Hepes/Saline Buffer, 100 μL/well, for 1 hour at RT followed by washing 3× with 150 μL of PBS++.
Compound dilutions were accomplished by preparing 1:3 serial dilutions of compounds as follows. For each plate (4 compounds/plate) 600 μL were added to 4 Bio-Rad Titertubes in a Titertube rack. […] Using Falcon Flexiplates, 100 μL of Hepes/Saline buffer or human serum were added to rows B through G. A multi-channel pipetter set to 180 μL was used to with four tips spaced evenly the pipetter. Each set of four tubes was mixed 5 times and 180 μL of 2× compound was transferred to the first column of each compound dilution in Row B, leaving Row A empty. 180 μL were added to the other wells in Row A. Serial dilutions were performed down the plate by transferring 50 μL to the next dilution and mixing 5 times, changing tips each time after mixing.
A 20 μg/mL solution in Hepes/Saline buffer or human serum, of 21/6 antibody was the positive control and was set aside in a reagent trough to add to cell suspension plate.
The cell staining was accomplished by first harvesting the log-phase Jurkat™ cells by centrifugation in 50 mL tubes (1100 rpm for 5 minutes). The cells were resuspended in 50 mL PBS++, spun, and resuspend in 20 mL PBS++. The cells were stained by adding 20 μL of Calcein AM for 30 minutes RT. The volume was brought to 50 mL with Hepes/Saline buffer and the cells were counted, spun, and resuspend to 2×10^6 cells/mL in Hepes/Saline buffer or human serum.
The compounds were incubated using the following procedure. In a new flexiplate, 65 μL of stained cells were added to Rows B through H. Then 65 μL of 2× compounds were added to the appropriate rows following the plate setup and mixed three times. 65 μL of 2×-21/6 antibody were added to Row H and mixed 3×. Finally the plate was incubated at room temperature for 30 minutes.
Fibronectin adhesion was measured using a fluorescent plate reader at EX 485/EM 530 after the following work up procedure. After incubation, the cells were mixed three times and 100 μL were transfered to the Fibronectin coated plates and incubated at 37° C. for about 35 minutes. Each plate was washed, row by row, by gently pipetting 100 μL of RT. PBS++ down the sides of the wells and turning the plate 90 degrees to aspirate. This procedure was repeated for a total of 3 washes. Each well was filled with 100 μL after washing by pipetting down the side of the well.
An IC50 value was calculated for each compound, both in the presence of the human serum and in the absence of human serum.

[1] = Cassette Dosing and Serum Analysis for Determination of Bioavailability; assay type: in vivo, rat; details: average AUC 0→12 h, male Sprague Dawley rats, single oral cassette dose (6 compounds, total dose 10 mg/kg), plasma
Description: The cassette included 5 test articles and a standard compound, for a total dose of 10 mg/kg. Each compound/test article was converted to the sodium salt with equimolar 1 N NaOH and dissolved in water at 2 mg/mL. The cassette was prepared by mixing equal volumes of each of the six solutions. The cassette dosing solution was mixed well and then the pH was adjusted to 7.5–9. The dosing solution was prepared the day before the study and stirred overnight at room temperature.
Male Sprague Dawley (SD) rats from Charles River Laboratories, 6–8 weeks old were used in this screen. Rats were quarantined for at least one day and had continuous access to food and water. On the night before the administration of the cassette, the rats were fasted for approximately 16 h.
Four SD rats were assigned in each cassette. A single dose of the dosing solution was administered orally to each rat. The dosing volume (5 mL/kg) and time were recorded and rats were fed 2 h after dosing.
Blood samples were collected via cardiac puncture at the following time points: 4 h, 8 h and 12 h. Immediately prior to blood collection, rats were anesthetized with CO2 gas within 10–20 seconds. After the 12-h samples were collected, the rats were euthanized via CO2 asphyxiation followed by cervical dislocation.
Blood samples were kept in heparinized microtainer tubes under sub-ambient temperature (4° C.) before they were processed. Blood samples were centrifuged (10000 rpm for 5 minutes) and plasma samples were removed and stored in a −20° C. freezer until analyzed for drug levels. Drug levels in the plasma were analyzed using the following protocol for direct plasma precipitation.
The in vivo plasma samples were prepared in a 1.5 mL 96-well plate, by adding, in order, 100 μL of the test plasma, 150 μL of methanol, followed by vortexing for 10–20 seconds. 150 μL of 0.05 ng/μL of an Internal Standard in acetonitrile were added and vortexed for 30 seconds.
The standard curve samples were prepared in a 1.5 mL 96-well plate, by adding, in order, 100 μL of control mouse plasma, followed by 150 μL of methanol and vortexing for 10–20 seconds. 150 μL of 0.05 ng/μL of an Internal Standard in acetonitrile were added and vortexed for 30 seconds. The samples were spiked with 0–200 ng (10 concentrations) of the compound of interest in 50% methanol to obtain a standard curve range of 0.5 ng/mL–2,000 ng/mL. Again, the sample was vortexed for 30 seconds.
The samples were then spun for 20–30 minutes at 3000 rpm in an Eppendorf microfuge before 80–90% of supernatant was transferred into a clean 96-well plate. The organic solvent was then evaporated until the samples were dry (under N2 at 40° C./30–60 min (Zymark Turbovap)).
The residue was then dissolved in […] mobile phase (50% CH3OH/0.1% TFA). LC/MS/MS was then run using a PE-Sciex API-3000 triple quadurpole mass spectrometer (SN0749707), Perkin-Elmer, Series200auto-sampler, and shimadzu 10A pump. Acquisition was done with PE-Sciex Analyst (v1.1) and data analysis and quantification were accomplished using PE-Sciex Analyst (v1.1). A 5–50 μL sample volume was injected onto a reverse phase ThermoHypersil DASH-18 column (Keystone 2.0×20 mm, 5 μm, PN: 8823025-701) using a mobile phase of 25% CH3OH, 0.1% TFA-100% CH3OH, 0.1% TFA. The run time was about 8 minutes at a flow rate of about 300 μL/minutes.
The Area Under the Curve (AUC) was calculated using the linear trapezoidal rule from t=0 to the last sampling time tx (see Handbook of Basic Pharmacokinetics, Wolfgang A. Ritschel and Gregory L. Kearns, 5th ed, 1999). AUC^0→tx=S((Cn+Cn+1)/2))·(tn+1−tn)[(μg/mL)h]

Row | Compound | IC50 (α4β1 integrin; containing human serum) [µM] | IC50 (α4β1 integrin; without the human serum) [µM] | AUC [1]
1 | CCN(CC)c1ncc(N(C)S(=O)(=O)c2ccc(F)cc2F)c(N[C@@H](Cc2ccc(OC(=O)N3CCCC3)cc2)C(=O)O)n1 [Example 11, N-(2-[N′,N′-diethylamino]-5-[N″-(2,4-difluorophenylsulfonyl)-N″-methylamino]pyrimidin-4-yl)-4′-(pyrrolidin-1-ylcarbonyloxy)-L-phenylalanine] | 0.483 | 0.00837 | 14.818 (μg/mL)h
2 | CCN(CC)c1ncc(N(C)S(=O)(=O)c2ccc(F)cc2F)c(N[C@@H](Cc2ccc(OC(=O)N3CCC3)cc2)C(=O)O)n1 [Example 13, N-(2-[N′,N′-diethylamino]-5-[N″-(2,4-difluorophenylsulfonyl)-N″-methylamino]pyrimidin-4-yl)-4′-(azetidin-1-ylcarbonyloxy)-L-phenylalanine] | 0.0895 | 0.00245 | 1.283 (μg/mL)h
3 | C#CCN(c1cnc(N(CC)CC)nc1N[C@@H](Cc1ccc(OC(=O)N2CCC2)cc1)C(=O)O)S(=O)(=O)c1ccc(F)cc1F [Example 17, N-(2-[N′,N′-diethylamino]-5-[N″-(2,4-difluorophenylsulfonyl)-N″-propargylamino]pyrimidin-4-yl)-4′-(azetidin-1-ylcarbonyloxy)-L-phenylalanine] | 0.125 | 0.00524 | 0.8628 (μg/mL)h

Second part, the molecule after the results:

Row | IC50 (α4β1 integrin; containing human serum) [µM] | IC50 (α4β1 integrin; without the human serum) [µM] | AUC [1] | Compound
4 | 0.227 | 0.00871 | 4.7816 (μg/mL)h | CCN(CC)c1ncc(N(CC)S(=O)(=O)c2ccc(F)cc2F)c(N[C@@H](Cc2ccc(OC(=O)N3CCCC3)cc2)C(=O)O)n1 [Example 12, N-(2-[N′,N′-diethylamino]-5-[N″-(2,4-difluorophenylsulfonyl)-N″-ethylamino]pyrimidin-4-yl)-4′-(pyrrolidin-1-ylcarbonyloxy)-L-phenylalanine]
5 | 0.0515 | 0.00339 | 0.3566 (μg/mL)h | CCN(CC)c1ncc(N(CC)S(=O)(=O)c2ccc(F)cc2F)c(N[C@@H](Cc2ccc(OC(=O)N3CCC3)cc2)C(=O)O)n1 [Example 14, N-(2-[N′,N′-diethylamino]-5-[N″-(2,4-difluorophenylsulfonyl)-N″-ethylamino]pyrimidin-4-yl)-4′-(azetidin-1-ylcarbonyloxy)-L-phenylalanine]
6 | 0.565 | 0.0137 | 23.808 (μg/mL)h | C#CCN(c1cnc(N(CC)CC)nc1N[C@@H](Cc1ccc(OC(=O)N2CCCC2)cc1)C(=O)O)S(=O)(=O)c1ccc(F)cc1F [Example 16, N-(2-[N′,N′-diethylamino]-5-[N″-(2,4-difluorophenylsulfonyl)-N″-propargylamino]pyrimidin-4-yl)-4′-(pyrrolidin-1-ylcarbonyloxy)-L-phenylalanine]
7 | 0.48 | 0.00586 | 4.7528 (μg/mL)h | C#CCN(c1cnc(N(CC)CC)nc1N[C@@H](Cc1ccc(OC(=O)N2CCC2)cc1)C(=O)O)S(=O)(=O)c1ccc(F)cc1 [Example 18, N-(2-[N′,N′-diethylamino]-5-[N″-(4-fluorophenylsulfonyl)-N″-propargylamino]pyrimidin-4-yl)-4′-(azetidin-1-ylcarbonyloxy)-L-phenylalanine]
